Laboratory results published in publication PMC8799869, “D-enantiomers of CATH-2 enhance the response of macrophages against Streptococcus suis serotype 2” (Journal of Advanced Research, 2021).
Converted amounts (≈) assume the structure as drawn. Like-named read-outs stand apart in the source and are kept apart here. Where a SMILES comes first, the peptide text is derived from it. Where no end group is shown, it is not given here. [ ]: non-standard residue; d: D form.

Key:
[1] = tested on: S. suis serotype 2 strain D282; type: cell-based, Streptococcus suis; conditions: 3 h
Experimental: (§1) S. suis serotype 2 strains P1/7, D282, S735, and OV625 were grown into mid-logarithmic phase for 3–4 h at 37 °C in THB, after which bacteria were centrifuged at 1200×g for 10 min at 4 °C and resuspended in fresh THB. Bacterial concentration was determined by measuring optical density at 620 nm with an OD of 1.0 being equivalent to 1x10^8 colony forming units (CFU)/mL. 1x10^6 CFU/mL S. suis was mixed with different concentrations of D-CATH-2 and derivatives (0.63 – 40 µM) and incubated for 3 h at 37 °C. Ten-fold dilutions were prepared and spread in Tryptic Soy agar (TSA) plates containing 5% (v/v) defibrinated sheep blood (Oxoid) and colonies were allowed to grow for 48 h. Minimal Bactericidal Concentration (MBC) was defined as ≤100 CFU/mL (2 log CFU/mL), the detection limit of the assay.

[2] = tested on: S. suis serotype 2 strain OV625; type: cell-based, Streptococcus suis; conditions: 3 h
Experimental: as §1

[3] = tested on: S. suis serotype 2 strain P1/7; type: cell-based, Streptococcus suis; conditions: 3 h
Experimental: as §1

[4] = tested on: S. suis serotype 2 strain S735; type: cell-based, Streptococcus suis; conditions: 3 h
Experimental: as §1

S. suis P1/7 = test: In vivo prophylactic S. suis P1/7 infection model; parameters: species or system mouse
Experimental: Upon arrival, mice were allowed to acclimatize for at least 7 days before the start of the experiment. The experiment was performed as depicted in Fig. 5A. The experiment was repeated twice to obtain in total 4 mice in the control groups and 12 mice in the infection groups. At day 1, mice were subcutaneously injected in the neck region with 1 mg/kg D-C(1–21) in PBS/cholesterol or with PBS/cholesterol alone. Cholesterol was added 5% v/v, 2 mg/ml in ethanol. The peptide and control groups were blinded to avoid any influence by the researchers. After 24 h (group 1) or after 7 days (group 2), mice were intraperitoneally infected with 10^7 CFU S. suis P1/7 in THB or with THB alone as control. 24 h after infection, a few drops of blood were collected via cheek puncture for bacterial count. During the infection phase of the experiment, mice were checked every 12 h in the acute phase of disease (first 48 h) and thereafter daily until the end of the study. A cumulative clinical score was given to the mice as measure of disease using several parameters as depicted in Table 4, according to Seitz et al.. When a mouse obtained a clinical score of 2 for a minimum of 3 out of 8 scoring points two days in a row, or in case of severe weight loss (>20%), the mouse was euthanized for animal welfare reasons (humane end point (HEP)) and the organs were collected for bacterial counts as described hereafter. Seven days post infection all mice were sacrificed for further analysis. Mice were anesthetized using isoflurane and 1 mL blood was drawn via heart puncture, followed by cervical dislocation. The peritoneum was flushed with 5 mL PBS/0.5 mM EDTA and diluted in 10 mL ice cold PBS/0.5% FCS. Spleen, lungs, liver, lymph nodes (axillary, inguinal, and mesenteric), brain, kidney and bone marrow were collected and stored in ice cold PBS. All organs, except the bone marrow and lymph nodes were weighed using a Sartorius microbalance. The peritoneal lavage (PTL) samples were counted using the Countess II Automated Cell Counter (Invitrogen, CA, USA). The lungs, liver, brain and kidney were meshed through a 40 µm filter (BD Biosciences) with 5 mL PBS to obtain single cell suspensions. Spleen and lymph nodes were digested with digestion buffer (1.5 WU/mL liberase TL grade, 100 Units/ml recombinant DNAse I, both Roche) for 30 min at 37 °C and meshed through a 40 µm filter using 5 mL PBS/0.5 mM EDTA. The red blood cells of the blood and spleen were lysed using an isotonic ammonium chloride buffer (155 mM NH4Cl, 10 mM KHCO3, 0.1 mM EDTA) for 5–10 min on ice, washed 1x with PBS and were resuspended in FACS buffer (PBS/0.5% BSA). Bone marrow samples were flushed out the femur and tibia of both legs with 5 mL PBS and filtered through a 40 µm filter. A sample of the blood, bone marrow, spleen, peritoneal lavage and lymph nodes was taken and stained for 30 min with different antibody panels (Table 1) and measured using the BD FACS Canto-II and analyzed with FlowJo V8. Of the lungs, liver, brain, kidney, spleen and peritoneal lavage samples, a 10-fold serial dilution was prepared and the samples were plated on TSA plates containing 5% (v/v) defibrinated sheep blood. The colonies were allowed to grow for 48 h at 37 °C. The number of colonies were counted, with ≤ 100 CFU/mL (2 log CFU/mL) as detection limit of the assay and calculated as CFU/mg organ.

murine BMDMs = test: BMDM differentiation after peptide exposure at day 1, flow cytometry; type: cell-based, mouse; conditions: 1.25 µM peptide at day 1 of culture for 24 h
Experimental: Murine bone marrow cells, isolated from the femur and tibia of both hindlegs, were stored in fetal calf serum (FCS) (Corning, NY, USA) containing 10% DMSO (Sigma-Aldrich, MO, USA) in liquid nitrogen. Cells were grown at a concentration of 5x10^5 cells/mL in RPMI-1640 without phenol red (Thermo Fisher Scientific, MA, USA) supplemented with 10% FCS and 1% penicillin/streptomycin (Thermo Fisher Scientific). Bone marrow-derived macrophages (BMDM) and bone marrow-derived dendritic cells (BMDC) were cultured by adding 20 ng/mL murine recombinant M−CSF or GM-CSF (PeproTech, NJ, USA) respectively. Where indicated, cells were supplemented with 1.25 µM peptide at day 1, which was replaced by fresh medium at day 2. The medium of all cells was replaced by fresh medium without antibiotics at day 3. At day 6 cells were stimulated with 1 µg/mL LTA from S. aureus (LTA-SA) (Invivogen, CA, USA) or with the different S. suis strains at a multiplicity of infection (MOI) of 0.2. Medium containing S. suis was removed after 2 h and replaced by medium containing 200 µg/mL gentamycin (Sigma) and left for an additional 22 h. After 24 h, medium was collected and stored at −20 °C for cytokine measurements. […] Cells were stained with antibodies (Table 1) for 20 min, washed and measured using aBD FACSCanto-II (BD Biosciences, NJ, USA) and analyzed with FlowJo software (Ashland, OR, USA).

[5] = Isothermal titration calorimetry (ITC), peptide binding to LTA; parameters: species or system S. aureus; conditions: 200 µM peptide titrated into 37.2 µM LTA-SA, MilliQ:dPBS 3:1, 37 °C, three experiments averaged, independent model, read-out: Kd, dissociation coefficient
Experimental: The interaction between the D-CATH-2 peptides and LTA-SA was tested using isothermal titration calorimetry (ITC). All ITC experiments were performed on a Low Volume NanoITC (TA instruments - Waters LLC, New Castle, USA). Peptide solution or 37.2 µM LTA-SA was prepared in MilliQ:dPBS (Gibco) in a 3:1 ratio. The chamber was filled with 164 µL LTA-SA and the peptide was loaded in the 50 µL syringe. Every 300 s, 1.99 µL peptide was titrated into the chamber at 37 °C. Data was analyzed using the Nano Analyze software (TA instruments-Waters LLC). The data of three experiments was averaged and an independent model was used to determine the peptide-LTA interaction.

E. coli = conditions: in ovo administration three days before hatch; cited from earlier work
Source text: (§2) In this study injection of D-C(1–21) reduced disease severity and increased the survival rate, although the differ ...

[6] = previously shown; read-out: dissociation coefficient to LPS; cited from earlier work
Experimental: Inhibition of LPS-induced, and to a lesser extent LTA-induced activation, is a widely studied immunomodulatory aspect of cathelicidins. […] The dissociation coefficient to LTA is with 2–10 µM much higher than previously shown for L-CATH-2 to LPS with a dissociation coefficient of 0.08 µM, [32] indicating a stronger binding to LPS than to LTA. However, since D-CATH-2 was highly efficient at inhibiting LTA-induced activation, it might also be that the inh ...

[7] = intravenous administration; blood and peritoneum; cited from earlier work
Source text: as §2

Compound	MBC [1]	MBC [2]	MBC [3]	MBC [4]	Kd [5]	other results
CC[C@@H](C)[C@@H](NC(=O)[C@@H](CCCCN)NC(=O)[C@@H](CCCNC(=N)N)NC(=O)[C@@H](CC(C)C)NC(=O)[C@@H](Cc1ccccc1)NC(=O)[C@@H](CCCNC(=N)N)NC(=O)CNC(=O)[C@@H](Cc1ccccc1)NC(=O)[C@H](N)CCCNC(=N)N)C(=O)N[C@H](CCCNC(=N)N)C(=O)N[C@H](CCCNC(=N)N)C(=O)N[C@H](Cc1ccccc1)C(=O)N[C@H](CCCNC(=N)N)C(=O)N1CCC[C@@H]1C(=O)N[C@H](CCCCN)C(=O)N[C@@H](C(=O)N[C@@H](C(=O)N[C@@H](C(=O)N[C@@H](C(=O)N[C@@H](C(=O)N[C@H](CCC(N)=O)C(N)=O)[C@H](C)CC)[C@H](C)O)[C@H](C)CC)[C@H](C)O)C(C)C [D-C(1–21)] (H-[dR][dF]G[dR][dF][dL][dR][dK][dI][dR][dR][dF][dR][dP][dK][dV][dT][dI][dT][dI][dQ]-NH2; N-terminus and C-terminus assumed)	2.5 to 5 µM	0.6 to 5 µM	2.5 µM (≈ 6.72 µg/mL)	2.5 µM (≈ 6.72 µg/mL)	10200 nM	cumulative clinical score (S. suis P1/7; 1 mg/kg s.c., infected 24 h post peptide injection, late stage of disease): small reduction of cumulative clinical score; cumulative clinical score (S. suis P1/7; 1 mg/kg s.c., infected 7 days post peptide injection, acute phase of disease): reduction in cumulative clinical score; survival (S. suis P1/7; 1 mg/kg s.c., infected either 24 h or 7 days post peptide injection): higher chance of survival; bodyweight loss up to 48 h post infection (S. suis P1/7; 1 mg/kg s.c., infected i.p. with 10^7 CFU 24 h or 7 d post peptide injection, same in control mice): approximately 8%; bacteria in the blood 7 days post infection (S. suis P1/7; 24 h D-C(1–21) treated mice): no mice had bacteria left in the bloodstream; number of S. suis positive organs per mouse (S. suis P1/7; 24 h D-C(1–21) treated mice versus untreated, not statistically significant): generally less S. suis positive organs; total CFU counts in organs (S. suis P1/7; 24 h D-C(1–21) treated mice versus untreated, not statistically significant, not found for 7 day treated mice): lower total CFU counts; S. suis bacteria in the bloodstream 24 h post infection (S. suis P1/7; all mice, treated or not): 10^5-10^6 CFU/mL; bacterial counts in organs of mice reaching the HEP (S. suis P1/7; treated mice reaching HEP before the end of the study, especially in the brain): less bacterial counts; BMDM differentiation efficiency, percentage of cells expressing F4/80 at day 6 (murine BMDMs): most pronounced
CC[C@@H](C)[C@@H](NC(=O)[C@@H](CCCCN)NC(=O)[C@@H](CCCNC(=N)N)NC(=O)[C@@H](CC(C)C)NC(=O)[C@@H](Cc1ccccc1)NC(=O)[C@H](N)CCCNC(=N)N)C(=O)N[C@H](CCCNC(=N)N)C(=O)N[C@H](CCCNC(=N)N)C(=O)N[C@H](Cc1ccccc1)C(=O)N[C@H](CCCNC(=N)N)C(=O)N1CCC[C@@H]1C(=O)N[C@H](CCCCN)C(=O)N[C@@H](C(=O)N[C@@H](C(=O)N[C@@H](C(=O)N[C@@H](C(=O)N[C@@H](C(=O)N[C@H](CCC(N)=O)C(N)=O)[C@H](C)CC)[C@H](C)O)[C@H](C)CC)[C@H](C)O)C(C)C [D-C(4–21)] (H-[dR][dF][dL][dR][dK][dI][dR][dR][dF][dR][dP][dK][dV][dT][dI][dT][dI][dQ]-NH2; N-terminus and C-terminus assumed)	2.5 to 5 µM	1.25 to 2.5 µM	5 to 10 µM	2.5 µM (≈ 5.82 µg/mL)	2120 nM	
CC[C@@H](C)[C@@H](NC(=O)[C@@H](CCCCN)NC(=O)[C@@H](CCCNC(=N)N)NC(=O)[C@@H](CC(C)C)NC(=O)[C@@H](Cc1ccccc1)NC(=O)[C@@H](CCCNC(=N)N)NC(=O)CNC(=O)[C@@H](Cc1ccccc1)NC(=O)[C@H](N)CCCNC(=N)N)C(=O)N[C@H](CCCNC(=N)N)C(=O)N[C@H](CCCNC(=N)N)C(=O)N[C@H](Cc1ccccc1)C(=O)N[C@H](CCCNC(=N)N)C(=O)N1CCC[C@@H]1C(=O)N[C@H](CCCCN)C(=O)N[C@@H](C(=O)N[C@@H](C(=O)N[C@@H](C(=O)N[C@@H](C(=O)N[C@@H](C(=O)N[C@H](CCC(N)=O)C(=O)NCC(=O)N[C@H](CO)C(=O)N[C@H](C)C(=O)N[C@H](CCCNC(=N)N)C(=O)N[C@H](Cc1ccccc1)C(N)=O)[C@H](C)CC)[C@H](C)O)[C@H](C)CC)[C@H](C)O)C(C)C [D-CATH-2] (H-[dR][dF]G[dR][dF][dL][dR][dK][dI][dR][dR][dF][dR][dP][dK][dV][dT][dI][dT][dI][dQ]G[dS][dA][dR][dF]-NH2; N-terminus assumed)	2.5 to 5 µM	1.25 to 5 µM	2.5 to 5 µM	1.25 to 2.5 µM	3040 nM	protection of chickens against infection (E. coli): protects chickens up to 7 days post hatch
L-CATH-2: natural chicken cathelicidin-2 (RFGRFLRKIRRFRPKVTITIQGSARF-NH2)						Kd [6]: 80 nM
LL-37						survival and bacterial load in septic mice [7]: improved the survival and reduced the bacterial load
